From patent US10723699B2 (Hyundai Pharm Co., Ltd., priority 2015, dated 2020)
Where two headings read alike, the source gives them in different places.

Molecular target: T1, G protein-coupled receptor 119 (GPR-119) (Mesocricetus auratus, UniProt A0A1U8CD06)
T1 construct: hamster-derived β-cells containing G protein-coupled receptor 119 (GPR-119), HIT-T15 cells; host or cells: HIT-T15 (hamster pancreatic β-cells)
T1 sequence (A0A1U8CD06 1-334): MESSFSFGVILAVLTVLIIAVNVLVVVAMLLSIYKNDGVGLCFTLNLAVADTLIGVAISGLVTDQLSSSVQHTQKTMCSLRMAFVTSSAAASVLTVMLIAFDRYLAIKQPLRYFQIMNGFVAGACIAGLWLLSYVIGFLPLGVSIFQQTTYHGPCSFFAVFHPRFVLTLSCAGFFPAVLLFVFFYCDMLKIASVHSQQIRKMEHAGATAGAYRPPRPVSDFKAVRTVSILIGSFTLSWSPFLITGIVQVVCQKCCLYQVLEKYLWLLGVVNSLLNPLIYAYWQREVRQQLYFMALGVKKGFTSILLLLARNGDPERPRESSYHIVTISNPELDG
Test: cAMP activity in HIT-T15 cells (cAMP dynamic kit, FRET)
Assay type: cell-based, hamster
Procedure: To check whether the cyclohexene derivatives according to the present invention activate cyclic adenosine monophosphate (cAMP), experiments were carried out, as follows.
The HIT-T15 cells were plated on a 96-well plate at 60,000 cells per well. On the next day of plating, the cells were treated with a varying concentration of each of the example compounds according to the present invention, and incubated at 37° C. for an hour. In this case, each of the treated compounds was used at six concentrations, ranging from 0.0032 to 10 μM, to treat the cells.
The cyclic adenosine monophosphate (cAMP) activity was measured according to the manufacturer's instruction using a cAMP dynamic kit commercially available from Cis Bio Inc. (Bedford, Mass.). The cells were lysed, and a level of cAMP was determined by a competitive immunoassay using D2-labeled cAMP and a cryptate-labeled anti-cAMP antibody. Fluorescence was read in Flex Station (Molecular Devices). […] Unlabeled cAMP in the cell lysate competed with the D2-labeled cAMP against the cryptate-labeled antibody. Since a decrease in the measured intensity of the FRET signals represents a level of cAMP in the cells, the cAMP activities of the compounds are calculated as a change in FRET signals by adjusting an amount of dimethyl sulfoxide (DMSO).

[1] = 1 hour at 37° C., six concentrations 0.0032 to 10 μM, read-out: EC50
[2] = EC50 (nM), 1 hour at 37° C., six concentrations 0.0032 to 10 μM

Row | Structure (SMILES) | EC50 (Table 2, read-out: EC50 value) [nM] | EC50 [1] [nM] | EC50 [2] [nM] | EC50 (EC50 value, Table 2) [nM]
1 | CCc1cnc(N2CCC(COc3ccc(C4=CCC(C(=O)N5CCC(=NO)CC5)CC4)cc3)CC2)nc1 (stereo not drawn) [Example 277, (4-(4-((1-(5-ethylpyrimidin-2-yl)piperidin-4-yl)methoxy)phenyl)cyclohex-3-enyl)(4-(hydroxyimino)piperidin-1-yl)methanone] | ≤ 50 |  |  | 
2 | CCc1cnc(N2CCC(COc3ccc(C4=CCC(C(=O)N5CCCCC5)CC4)cc3F)CC2)nc1 (stereo not drawn) [Example 292, (4-(4-((1-(5-ethylpyrimidin-2-yl)piperidin-4-yl)methoxy)-3-fluorophenyl)cyclohex-3-enyl)(piperidin-1-yl)methanone] | ≤ 50 | 12 |  | 
3 | CCc1cnc(N2CCC(COc3ccc(C4=CCC(C(=O)N5CCCC5)CC4)cc3F)CC2)nc1 (stereo not drawn) [Example 293, (4-(4-((1-(5-ethylpyrimidin-2-yl)piperidin-4-yl)methoxy)-3-fluorophenyl)cyclohex-3-enyl)(pyrrolidin-1-yl)methanone] | ≤ 50 | 18 |  | 
4 | CCc1cnc(N2CCC(COc3ccc(C4=CCC(C(=O)N5CCC(O)CC5)CC4)cc3F)CC2)nc1 (stereo not drawn) [Example 294, (4-(4-((1-(5-ethylpyrimidin-2-yl)piperidin-4-yl)methoxy)-3-fluorophenyl)cyclohex-3-enyl)(4-hydroxypiperidin-1-yl)methanone] | ≤ 50 | 23 |  | 
5 | CCc1cnc(N2CCC(COc3ccc(C4=CCC(C(=O)N5CC(=O)C5)CC4)cc3F)CC2)nc1 (stereo not drawn) [Example 295, 1-(4-(4-((1-(5-ethylpyrimidin-2-yl)piperidin-4-yl)methoxy)-3-fluorophenyl)cyclohex-3-enecarbonyl)azetidin-3-one] | ≤ 50 | 43 |  | 
6 | CCc1cnc(N2CCC(COc3ccc(C4=CCC(C(=O)N5CCC(CCO)CC5)CC4)cc3F)CC2)nc1 (stereo not drawn) [Example 296, (4-(4-((1-(5-ethylpyrimidin-2-yl)piperidin-4-yl)methoxy)-3-fluorophenyl)cyclohex-3-enyl)(4-(2-hydroxyethyl)piperidin-1-yl)methanone] | ≤ 50 | 6.8 |  | 
7 | CCc1cnc(N2CCC(COc3ccc(C4=CCC(C(=O)N5CCC(N6CCCCC6)CC5)CC4)cc3F)CC2)nc1 (stereo not drawn) [Example 297, 1,4′-bipiperidin-1′-yl(4-(4-((1-(5-ethylpyrimidin-2-yl)piperidin-4-yl)methoxy)-3-fluorophenyl)cyclohex-3-enyl)methanone] |  | 120 |  | 
8 | CCc1cnc(N2CCC(COc3ccc(C4=CCC(C(=O)N5CCC(N6CCCC6)CC5)CC4)cc3F)CC2)nc1 (stereo not drawn) [Example 298, (4-(4-((1-(5-ethylpyrimidin-2-yl)piperidin-4-yl)methoxy)-3-fluorophenyl)cyclohex-3-enyl)(4-(pyrrolidin-1-yl)piperidin-1-yl)methanone] |  | 150 |  | 
9 | CCc1cnc(N2CCC(COc3ccc(C4=CCC(C(=O)N5CCOCC5)CC4)cc3F)CC2)nc1 (stereo not drawn) [Example 299, (4-(4-((1-(5-ethylpyrimidin-2-yl)piperidin-4-yl)methoxy)-3-fluorophenyl)cyclohex-3-enyl)(morpholino)methanone] | ≤ 50 | 12 |  | 
10 | CCc1cnc(N2CCC(COc3ccc(C4=CCC(C(=O)N5CCSCC5)CC4)cc3F)CC2)nc1 (stereo not drawn) [Example 300, (4-(4-((1-(5-ethylpyrimidin-2-yl)piperidin-4-yl)methoxy)-3-fluorophenyl)cyclohex-3-enyl)(thiomorpholino)methanone] | ≤ 50 | 8.5 |  | 
11 | CCc1cnc(N2CCC(COc3ccc(C4=CCC(C(=O)N5CCC5)CC4)cc3F)CC2)nc1 (stereo not drawn) [Example 301, azetidin-1-yl(4-(4-((1-(5-ethylpyrimidin-2-yl)piperidin-4-yl)methoxy)-3-fluorophenyl)cyclohex-3-enyl)methanone] | ≤ 50 | 19 |  | 
12 | CCc1cnc(N2CCC(COc3ccc(C4=CCC(C(=O)NC5CC5)CC4)cc3F)CC2)nc1 (stereo not drawn) [Example 302, N-cyclopropyl-4-(4-((1-(5-ethylpyrimidin-2-yl)piperidin-4-yl)methoxy)-3-fluorophenyl)cyclohex-3-enecarboxamide] |  | 110 |  | 
13 | CCc1cnc(N2CCC(COc3ccc(C4=CCC(C(=O)NC5CCC5)CC4)cc3F)CC2)nc1 (stereo not drawn) [Example 303, N-cyclobutyl-4-(4-((1-(5-ethylpyrimidin-2-yl)piperidin-4-yl)methoxy)-3-fluorophenyl)cyclohex-3-enecarboxamide] | ≤ 50 | 29 |  | 
14 | CCc1cnc(N2CCC(COc3ccc(C4=CCC(C(=O)NC5CCCC5)CC4)cc3F)CC2)nc1 (stereo not drawn) [Example 304, N-cyclopentyl-4-(4-((1-(5-ethylpyrimidin-2-yl)piperidin-4-yl)methoxy)-3-fluorophenyl)cyclohex-3-enecarboxamide] | ≤ 50 | 20 |  | 
15 | CCc1cnc(N2CCC(COc3ccc(C4=CCC(C(=O)NC5CCCCC5)CC4)cc3F)CC2)nc1 (stereo not drawn) [Example 305, N-cyclohexyl-4-(4-((1-(5-ethylpyrimidin-2-yl)piperidin-4-yl)methoxy)-3-fluorophenyl)cyclohex-3-enecarboxamide] | ≤ 50 | 24 |  | 
16 | CCc1cnc(N2CCC(COc3ccc(C4=CCC(C(=O)N5CCC6(CC5)OCCO6)CC4)cc3F)CC2)nc1 (stereo not drawn) [Example 306, (4-(4-((1-(5-ethylpyrimidin-2-yl)piperidin-4-yl)methoxy)-3-fluorophenyl)cyclohex-3-enyl)(1,4-dioxa-8-azaspiro[4.5]decan-8-yl)methanone] |  |  | 8.9 | ≤ 50
17 | CCc1cnc(N2CCC(COc3ccc(C4=CCC(C(=O)NCC(F)(F)F)CC4)cc3F)CC2)nc1 (stereo not drawn) [Example 307, 4-(4-((1-(5-ethylpyrimidin-2-yl)piperidin-4-yl)methoxy)-3-fluorophenyl)-N-(2,2,2-trifluoroethyl)cyclohex-3-enecarboxamide] |  | 88 |  | 
18 | CCc1cnc(N2CCC(COc3ccc(C4=CCC(C(=O)N5CCC(=O)CC5)CC4)cc3F)CC2)nc1 (stereo not drawn) [Example 308, 1-(4-(4-((1-(5-ethylpyrimidin-2-yl)piperidin-4-yl)methoxy)-3-fluorophenyl)cyclohex-3-enecarbonyl)piperidin-4-one] |  |  | 23 | ≤ 50
19 | CCc1cnc(N2CCC(COc3ccc(C4=CCC(C(=O)N5CC(O)C5)CC4)cc3F)CC2)nc1 (stereo not drawn) [Example 309, (4-(4-((1-(5-ethylpyrimidin-2-yl)piperidin-4-yl)methoxy)-3-fluorophenyl)cyclohex-3-enyl)(3-hydroxyazetidin-1-yl)methanone] | ≤ 50 | 11 |  | 
20 | CC(C)(C)OC(=O)N1CCC(COc2ccc(C3=CCC(C(=O)N4CCC(O)CC4)CC3)nc2)CC1 (stereo not drawn) [Example 310, tert-butyl 4-((6-(4-(4-hydroxypiperidine-1-carbonyl)cyclohex-1-enyl)pyridin-3-yloxy)methyl)piperidine-1-carboxylate] | ≤ 50 | 33 |  | 
21 | CC(C)(C)OC(=O)N1CCC(COc2ccc(C3=CCC(C(=O)N4CCCCC4)CC3)nc2)CC1 (stereo not drawn) [Example 311, tert-butyl 4-((6-(4-(piperidine-1-carbonyl)cyclohex-1-enyl)pyridin-3-yloxy)methyl)piperidine-1-carboxylate] |  | 79 |  | 
22 | CC(C)(C)OC(=O)N1CCC(COc2ccc(C3=CCC(C(=O)N4CCCC4)CC3)nc2)CC1 (stereo not drawn) [Example 312, tert-butyl 4-((6-(4-(pyrrolidine-1-carbonyl)cyclohex-1-enyl)pyridin-3-yloxy)methyl)piperidine-1-carboxylate] |  | 120 |  | 
23 | CCc1cnc(N2CCC(COc3ccc(C4=CCC(C(=O)NCCO)CC4)cc3F)CC2)nc1 (stereo not drawn) [Example 313, 4-(4-((1-(5-ethylpyrimidin-2-yl)piperidin-4-yl)methoxy)-3-fluorophenyl)-N-(2-hydroxyethyl)cyclohex-3-enecarboxamide] |  | 120 |  | 
24 | CCc1cnc(N2CCC(COc3ccc(C4=CCC(C(=O)NCC(F)F)CC4)cc3F)CC2)nc1 (stereo not drawn) [Example 314, N-(2,2-difluoroethyl)-4-(4-((1-(5-ethylpyrimidin-2-yl)piperidin-4-yl)methoxy)-3-fluorophenyl)cyclohex-3-enecarboxamide] |  | 61 |  | 
25 | CC(C)c1noc(N2CCC(COc3ccc(C4=CCC(C(=O)N5CCCC5)CC4)cn3)CC2)n1 (stereo not drawn) [Example 315, (4-(6-((1-(3-isopropyl-1,2,4-oxadiazol-5-yl)piperidin-4-yl)methoxy)pyridin-3-yl)cyclohex-3-enyl)(pyrrolidin-1-yl)methanone] |  | 68 |  | 
26 | CC(C)c1noc(N2CCC(COc3ccc(C4=CCC(C(=O)N5CCCCC5)CC4)cn3)CC2)n1 (stereo not drawn) [Example 316, (4-(6-((1-(3-isopropyl-1,2,4-oxadiazol-5-yl)piperidin-4-yl)methoxy)pyridin-3-yl)cyclohex-3-enyl)(piperidin-1-yl)methanone] | ≤ 50 | 37 |  | 
